# Columns and labels:
# [1] = molecular target: T1, recombinant human mGluR4a receptors (Homo sapiens, UniProt Q14833); experiment: mGluR4 assay on HEK-expressing human mGluR4: fluorescent cell based Ca2+ mobilization assay (FLIPR); settings: HEK-293 cells expressing hmGluR4; enhancement of EC25 glutamate response; mean of at least three independent experiments in duplicate; read-out: Ca^2+ Flux (mean EC50)
# T1 construct: expressed in transfected cells
# Description: mGluR4 Assay on HEK-Expressing Human mGluR4
# The compounds of the present invention are positive allosteric modulators of mGluR4 receptor. Their activity was examined on recombinant human mGluR4a receptors by detecting changes in intracellular Ca^2+ concentration, using the fluorescent Ca^2+-sensitive dye Fluo4-(AM) and a Fluorometric Imaging Plate Reader (FLIPR, Molecular Devices, Sunnyvale, Calif.).
# The cDNA encoding the human metabotropic glutamate receptor (hmGluR4), (accession number NM 000841.1, NCBI Nucleotide database browser), was subcloned into an expression vector containing also the hygromycin resistance gene. In parallel, the cDNA encoding a G protein allowing redirection of the activation signal to intracellular calcium flux was subcloned into a different expression vector containing also the puromycin resistance gene. Transfection of both these vectors into HEK293 cells with PolyFect reagent (Qiagen) according to supplier's protocol, and hygromycin and puromycin treatment allowed selection of antibiotic resistant cells which had integrated stably one or more copies of the plasmids. Positive cellular clones expressing hmGluR4 were identified in a functional assay measuring changes in calcium fluxes in response to glutamate or selective known mGluR4 orthosteric agonists and antagonists.
# HEK-293 cells expressing hmGluR4 were maintained in media containing DMEM, dialyzed Fetal Calf Serum (10%), Glutamax™ (2 mM), Penicillin (100 units/mL), Streptomycin (100 μg/mL), Geneticin (100 μg/mL) and Hygromycin-B (40 μg/mL) and puromycin (1 μg/mL) at 37° C.5% CO2.
# Human mGluR4 HEK-293 cells were plated out 24 hours prior to FLIPR^384 assay in black-walled, clear-bottomed, poly-L-ornithine-coated 384-well plates at a density of 25,000 cells/well in a glutamine/glutamate free DMEM medium containing foetal bovine serum (10%), penicillin (100 units/mL) and streptomycin (100 μg/mL) at 37° C.5% CO2.
# On the day of the assay, the medium was aspirated and the cells were loaded with a 3 μM solution of Fluo4-AM (LuBioScience, Lucerne, Switzerland) in 0.03% pluronic acid. After 1 hour at 37° C. 5% CO2, the non incorporated dye was removed by washing cell plate with the assay buffer and the cells were left in the dark at room temperature for six hours before testing. All assays were performed in a pH 7.4 buffered-solution containing 20 mM HEPES, 143 mM NaCl, 6 mM KCl, 1 mM MgSO4, 1 mM CaCl2, 0.125 mM sulfapyrazone and 0.1% glucose.
# After 10 s of basal fluorescence recording, various concentrations of the compounds of the invention were added to the cells. Changes in fluorescence levels were first monitored for 180 s in order to detect any agonist activity of the compounds. Then the cells were stimulated by an EC25 glutamate concentration for an additional 110 s in order to measure enhancing activities of the compounds of the invention. EC25 glutamate concentration is the concentration giving 25% of the maximal glutamate response.
# The concentration-response curves of representative compounds of the present invention were generated using the Prism GraphPad software (Graph Pad Inc, San Diego, USA). The curves were fitted to a four-parameter logistic equation:
# (Y=Bottom+(Top-Bottom)(1+10̂((Log EC50−X)*Hill Slope)
# allowing the determination of EC50 values.
# The Table 3 below represents the mean EC50 obtained from at least three independent experiments of selected molecules performed in duplicate.
# T1 sequence (Q14833 33-912): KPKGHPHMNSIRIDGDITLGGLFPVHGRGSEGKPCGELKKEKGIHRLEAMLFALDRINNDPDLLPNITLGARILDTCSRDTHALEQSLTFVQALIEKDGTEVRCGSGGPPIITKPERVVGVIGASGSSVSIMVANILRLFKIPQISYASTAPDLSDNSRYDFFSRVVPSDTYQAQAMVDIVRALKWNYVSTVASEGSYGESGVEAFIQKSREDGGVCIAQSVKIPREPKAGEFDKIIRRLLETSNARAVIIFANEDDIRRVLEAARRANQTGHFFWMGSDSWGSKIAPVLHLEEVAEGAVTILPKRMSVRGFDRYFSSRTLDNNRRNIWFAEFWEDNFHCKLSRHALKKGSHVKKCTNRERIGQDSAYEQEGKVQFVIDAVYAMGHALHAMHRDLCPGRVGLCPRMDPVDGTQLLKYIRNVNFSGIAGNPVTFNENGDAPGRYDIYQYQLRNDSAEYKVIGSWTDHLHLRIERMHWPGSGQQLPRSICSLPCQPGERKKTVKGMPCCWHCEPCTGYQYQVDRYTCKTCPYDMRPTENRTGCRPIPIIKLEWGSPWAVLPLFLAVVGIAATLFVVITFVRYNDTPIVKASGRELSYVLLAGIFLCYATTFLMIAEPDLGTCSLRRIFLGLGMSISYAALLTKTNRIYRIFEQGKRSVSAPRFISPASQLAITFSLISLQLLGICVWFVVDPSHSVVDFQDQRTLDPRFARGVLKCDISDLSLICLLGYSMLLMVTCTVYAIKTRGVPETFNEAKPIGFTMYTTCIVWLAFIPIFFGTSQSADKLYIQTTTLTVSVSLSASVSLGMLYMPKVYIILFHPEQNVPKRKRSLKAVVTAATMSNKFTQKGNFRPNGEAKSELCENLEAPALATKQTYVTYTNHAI
SMILES,melting point [°C],EC50 [1] [nM]
COC(C)(C)CN1CCc2sc(Nc3ncc(F)cn3)nc2-c2cn[nH]c21 [Compound 1-124],282 to 285,100 to 1000
"Fc1cnc(Nc2nc3c(s2)CCN(CCCN2CCOCC2)c2n[nH]cc2-3)nc1 [Compound 1-140, N-(5-Fluoropyrimidin-2-yl)-6-(3-morpholinopropyl)-4,5,6,8-tetrahydropyrazolo[3,4-b]thiazolo[4,5-d]azepin-2-amine]",–,< 100
COCCOCCN1CCc2sc(Nc3ncc(F)cn3)nc2-c2cn[nH]c21 [Compound 1-133],> 220,< 100
Cc1nc(Nc2nc3c(s2)CCN(CC2CC2)c2[nH]ncc2-3)ns1 [Compound 1-3],–,1000 to 10000
Fc1cnc(Nc2nc3c(s2)CCN(Cc2cc(C4CC4)no2)c2[nH]ncc2-3)nc1 [Compound 1-7],266 to 268,< 100
"Fc1cnc(Nc2nc3c(s2)CCN(CCCN2CCC(F)(F)CC2)c2[nH]ncc2-3)nc1 [Compound 1-148, 6-(3-(4,4-Difluoropiperidin-1-yl)propyl)-N-(5-fluoropyrimidin-2-yl)-4,5,6,8-tetrahydropyrazolo[3,4-b]thiazolo[4,5-d]azepin-2-amine]",238 to 240,100 to 1000
Cc1ccnc(Nc2nc3c(s2)CCN(Cc2noc(C)n2)c2[nH]ncc2-3)n1 [Compound 1-146],–,< 100
CCOCCN1CCc2sc(Nc3ncc(F)cn3)nc2-c2cn[nH]c21 [Compound 1-134],246,< 100
"O=S1(=O)CCN(CCCN2CCc3sc(Nc4ncc(F)cn4)nc3-c3cn[nH]c32)CC1 [Compound 1-151, 4-(3-(2-((5-Fluoropyrimidin-2-yl)amino)-4,5-dihydropyrazolo[3,4-b]thiazolo[4,5-d]azepin-6(8H)-yl)propyl)thiomorpholine 1,1-dioxide]",272 to 273,< 100
FCCN1CCc2sc(Nc3ncc(F)cn3)nc2-c2cn[nH]c21 [Compound 1-137],283 to 286,< 100
"Fc1cnc(Nc2nc3c(s2)CCN(Cc2ccc(N4CCOCC4)cn2)c2[nH]ncc2-3)nc1 [Compound 1-135, N-(5-Fluoropyrimidin-2-yl)-6-((5-morpholinopyridin-2-yl)methyl)-4,5,6,8-tetrahydropyrazolo[3,4-b]thiazolo[4,5-d]azepin-2-amine]",240,< 100
Fc1cnc(Nc2nc3c(s2)CCN(CC2CC(F)(F)C2)c2[nH]ncc2-3)nc1 [Compound 1-14],> 280,100 to 1000
"COC[C@H](C)N1CCc2sc(Nc3ncc(F)cn3)nc2-c2cn[nH]c21 [Compound 1-131, N-(5-Fluoropyrimidin-2-yl)-6-(2-methoxy-1(S)-methyl-ethyl)-4,5,6,8-tetrahydropyrazolo[3,4-b]thiazolo[4,5-d]azepin-2-amine]",249 to 251,< 100
CC(C)c1nc(CN2CCc3sc(Nc4ncc(F)cn4)nc3-c3cn[nH]c32)no1 [Compound 1-147],> 260,< 100
"CNCCCN1CCc2sc(Nc3ncc(F)cn3)nc2-c2cn[nH]c21 [Compound 1-130, N-(5-Fluoropyrimidin-2-yl)-6-(3-(methylamino)propyl)-4,5,6,8-tetrahydropyrazolo[3,4-b]thiazolo[4,5-d]azepin-2-amine]",–,1000 to 10000
"Fc1cnc(Nc2nc3c(s2)CCN(CCN2CCOCC2)c2[nH]ncc2-3)nc1 [Compound 1-136, N-(5-Fluoropyrimidin-2-yl)-6-(2-morpholinoethyl)-4,5,6,8-tetrahydropyrazolo[3,4-b]thiazolo[4,5-d]azepin-2-amine]",–,100 to 1000
Cn1ccc(CN2CCc3sc(Nc4ncc(F)cn4)nc3-c3cn[nH]c32)n1 [Compound 1-139],195 to 200,100 to 1000
FCCCN1CCc2sc(Nc3ncc(F)cn3)nc2-c2cn[nH]c21 [Compound 1-149],> 290,1000 to 10000
Cc1ccnc(Nc2nc3c(s2)CCNc2[nH]ncc2-3)n1 [Compound 1-52],229 to 232,< 100

SMILES,melting point [°C],EC50 [1] [nM]
"Cc1noc(CN2CCc3sc(Nc4ncc(F)cn4)nc3-c3cn[nH]c32)n1 [Compound 1-150, N-(5-Fluoropyrimidin-2-yl)-6-((3-methyl-1,2,4-oxadiazol-5-yl)methyl)-4,5,6,8-tetrahydropyrazolo[3,4-b]thiazolo[4,5-d]azepin-2-amine]",–,< 100
COCC(C)N1CCc2sc(Nc3ncc(F)cn3)nc2-c2cn[nH]c21 (centres unmarked) [Compound 1-125],212 to 215,< 100
Cc1ccnc(Nc2nc3c(s2)CCN(CCCN2CCOCC2)c2[nH]ncc2-3)n1 [Compound 1-145],251,< 100
"CC(C)N1CCN(CCN2CCc3sc(Nc4ncc(F)cn4)nc3-c3cn[nH]c32)CC1 [Compound 1-141, N-(5-Fluoropyrimidin-2-yl)-6-(2-(4-isopropylpiperazin-1-yl)ethyl)-4,5,6,8-tetrahydropyrazolo[3,4-b]thiazolo[4,5-d]azepin-2-amine]",–,1000 to 10000
Cc1ccnc(Nc2nc3c(s2)CCN(Cc2ncccn2)c2[nH]ncc2-3)n1 [Compound 1-152],–,100 to 1000
Fc1cnc(Nc2nc3c(s2)CCN(Cc2csc(C4CC4)n2)c2[nH]ncc2-3)nc1 [Compound 1-8],240 to 245,100 to 1000
Fc1cnc(Nc2nc3c(s2)CCN(Cc2cc(C4CC4)on2)c2[nH]ncc2-3)nc1 [Compound 1-4],–,< 100
"OCCCN1CCc2sc(Nc3ncc(F)cn3)nc2-c2cn[nH]c21 [Compound 1-132, 3-(2-(5-Fluoropyrimidin-2-ylamino)-4,5-dihydropyrazolo[3,4-b]thiazolo[4,5-d]azepin-6(8H)-yl)propan-1-ol]",–,100 to 1000
COCc1ccc(CN2CCc3sc(Nc4ncc(F)cn4)nc3-c3cn[nH]c32)nc1 [Compound 1-143],198 to 202,< 100
Cc1ccnc(Nc2nc3c(s2)CCN(Cc2ccc(Cl)cn2)c2[nH]ncc2-3)n1 [Compound 1-10],165 to 168,< 100
"COCCN1CCc2sc(Nc3ncc(F)c(C)n3)nc2-c2cn[nH]c21 [Compound 1-129, N-(5-Fluoro-4-methylpyrimidin-2-yl)-6-(2-methoxyethyl)-4,5,6,8-tetrahydropyrazolo[3,4-b]thiazolo[4,5-d]azepin-2-amine]",261 to 263,< 100
CC1COCC(C)N1CCCN1CCc2sc(Nc3ncc(F)cn3)nc2-c2cn[nH]c21 (centres unmarked) [Compound 1-153],223,< 100
"Cc1nc(CN2CCc3sc(Nc4ncc(F)cn4)nc3-c3c[nH]nc32)no1 [Compound 1-138, N-(5-Fluoropyrimidin-2-yl)-6-((5-methyl-1,2,4-oxadiazol-3-yl)methyl)-4,5,6,8-tetrahydropyrazolo[3,4-b]thiazolo[4,5-d]azepin-2-amine]",–,< 100
Fc1cnc(Nc2nc3c(s2)CCN(Cc2cccc(F)c2)c2[nH]ncc2-3)nc1 [Compound 1-2],265 to 270,1000 to 10000
Fc1cnc(Nc2nc3c(s2)CCN(CCCN2CCCCC2)c2[nH]ncc2-3)nc1 [Compound 1-144],227,100 to 1000
Cc1cccc(Nc2nc3c(s2)CCN(C[C@@H]2CCCO2)c2[nH]ncc2-3)n1 [Compound 1-127],229 to 231,100 to 1000
Fc1cnc(Nc2nc3c(s2)CCN(C[C@@H]2CCCO2)c2[nH]ncc2-3)nc1 [Compound 1-126],–,< 100
"N#Cc1cccc(CN2CCc3sc(Nc4ncc(F)cn4)nc3-c3cn[nH]c32)c1 [Compound 1-1, 3-((2-(5-Fluoropyrimidin-2-ylamino)-4,5-dihydropyrazolo[3,4-b]thiazolo[4,5-d]azepin-6(7H)-yl)methyl)benzonitrile]",282 to 284,100 to 1000

# — US20140349994A1, “Novel 2-Amino-4,5,6,8-Tetrahydropyrazolo[3,4-b]Thiazolo [4,5-d]Azepine Derivatives and Their Use as Allosteric Modulators of Metabotropic Glutamate Receptors” (Addex Pharma S.A., priority 2012, published 2014)
